Assay results published in US8785399B2, “Antibacterial peptides” (Spiderbiotech S.R.A., priority 2008, dated 2014).
≈ marks a conversion by molar mass, not a printed value. Positions of bridges follow the written chain, without caps; N, C: chain ends. Non-standard residues stand in square brackets, D forms with d. Residues, ends and D or L forms follow the SMILES beside them. Chains are numbered I, II in the order given. Aoc = NCCCCCCCC(=O)O; Ava = NCCCCC(=O)O; βAla = NCCC(=O)O

How the values were obtained:
E. coli ATCC 25922 = assay: MIC by broth microdilution, E. coli reference strain; type: cell-based, Escherichia coli; conditions: ATCC 25922
Method: (§1) Determination of MIC. MICs were determined in MHB by the broth microdilution methodology, according to CLSI procedure (formerly NCCLS, Ref. 11) by using final bacterial inocula of 1-5×10^5 CFU/mL. Assays were performed in sterile 96-well microtiter plates with round bottom wells (Corning Costar). Plates were incubated at 37° C. and read after 20-24 h. MIC was defined as the lowest drug concentration causing complete suppression of visible bacterial growth. All compounds were dissolved in (5% v/v DMSO).
All natural aminoacids have been divided into three groups based on their chemical-physical properties. A total amount of 27 minilibraries, each one containing six peptide in equimolar amounts, were obtained and assayed against E. coli ATCC 25922 as reference strain. MIC (Minimum Inhibitory Concentration) is defined as the lowest concentration inhibiting 100% of visible growth.

[1] = tested on: Pseudomonas aeruginosa ATCC 27853; assay: MIC by broth microdilution, P. aeruginosa reference strain; type: cell-based; conditions: ATCC 27853
Method: as §1
(§2) These peptides were synthesized individually, in order to assay the activity of each sequence.

[2] = tested on: Klebsiella pneumoniae ATCC 10031; assay: MIC by broth microdilution, K. pneumoniae reference strain; type: cell-based; conditions: ATCC 10031
Method: as §1, §2

[3] = tested on: Staphylococcus aureus ATCC 25923
Method: as §1, §2

| Molecule | MIC (ug/mL) E. coli (E. coli ATCC 25922) [µg/mL] | MIC (ug/mL) P. aeruginosa [1] [µg/mL] | MIC (ug/mL) K. pneumoniae [2] [µg/mL] | MIC (ug/mL) S. aureus [3] [µg/mL] |
| --- | --- | --- | --- | --- |
| H-QWKIRVRLSA-OH [ID12, H-Q-W-KIRVRLSA-OH] | 64 | 64 | >512 | >512 |
| CC[C@H](C)[C@H](NC(=O)[C@H](CCCCN)NC(=O)[C@H](CCCCN)NC(=O)[C@H](CCC(N)=O)NC(=O)CN)C(=O)N[C@@H](CCCNC(=N)N)C(=O)N[C@H](C(=O)N[C@@H](CCCNC(=N)N)C(=O)N[C@@H](CC(C)C)C(=O)N[C@@H](CO)C(=O)N[C@@H](C)C(=O)NCCCC[C@H](NC(=O)[C@H](C)NC(=O)[C@H](CO)NC(=O)[C@H](CC(C)C)NC(=O)[C@H](CCCNC(=N)N)NC(=O)[C@@H](NC(=O)[C@H](CCCNC(=N)N)NC(=O)[C@@H](NC(=O)[C@H](CCCCN)NC(=O)[C@H](CCCCN)NC(=O)[C@H](CCC(N)=O)NC(=O)CN)[C@@H](C)CC)C(C)C)C(=O)NCCC(N)=O)C(C)C [ID20, (H-G-QKKIRVRLSA)2-Lys-β-Ala-NH2] (I: H-GQKKIRVRLSAK[βAla]-NH2 / II: H-GQKKIRVRLSA; amide I:12-II:C) | 16 to 32 | >64 | >64 | – |
| H-QLKIRVRLSA-OH [ID10, H-Q-L-KIRVRLSA-OH] | 128 | 128 | >512 | >512 |
| CC[C@H](C)[C@H](NC(=O)[C@H](CCCCN)NC(=O)[C@H](CCCCN)NC(=O)[C@H](CCC(N)=O)NC(=O)CCCCCCCN)C(=O)N[C@@H](CCCNC(=N)N)C(=O)N[C@H](C(=O)N[C@@H](CCCNC(=N)N)C(=O)N[C@@H](CC(C)C)C(=O)N[C@@H](CO)C(=O)N[C@@H](C)C(=O)NCCCC[C@H](NC(=O)[C@H](C)NC(=O)[C@H](CO)NC(=O)[C@H](CC(C)C)NC(=O)[C@H](CCCNC(=N)N)NC(=O)[C@@H](NC(=O)[C@H](CCCNC(=N)N)NC(=O)[C@@H](NC(=O)[C@H](CCCCN)NC(=O)[C@H](CCCCN)NC(=O)[C@H](CCC(N)=O)NC(=O)CCCCCCCN)[C@@H](C)CC)C(C)C)C(=O)NCCC(N)=O)C(C)C [ID23, (H-8-Aoa-OKKIRVRLSA)2-Lys-β-Ala-NH2] (I: H-[Aoc]QKKIRVRLSAK[βAla]-NH2 / II: H-[Aoc]QKKIRVRLSA; amide I:12-II:C) | 32 (≈ 11.2 µM) | >64 | >64 | – |
| H-QVKIRVRLSA-OH [ID11, H-Q-V-KIRVRLSA-OH] | 256 | 256 | >512 | >512 |
| H-GQWKIRVRLSA-OH [ID14, H-G-Q-W-KIRVRLSA-OH] | 64 | 64 | >512 | >512 |
| CC[C@H](C)[C@H](NC(=O)[C@H](CCCCN)NC(=O)[C@H](CCCCN)NC(=O)[C@H](CCC(N)=O)NC(=O)CCCCCCCN)C(=O)N[C@@H](CCCNC(=N)N)C(=O)N[C@H](C(=O)N[C@@H](CCCNC(=N)N)C(=O)N[C@@H](CC(C)C)C(=O)N[C@@H](CO)C(=O)N[C@@H](C)C(N)=O)C(C)C [ID17, H-8-Aoa-QKKIRVRLSA-NH2] (H-[Aoc]QKKIRVRLSA-NH2) | 64 (≈ 47.8 µM) | >64 | >64 | – |
| H-WKKIRVRLSA-OH [ID6, H-W-KKIRVRLSA-OH] | 64 to 128 | 128 | 256 | 512 |
| H-QFKIRVRLSA-OH [ID8, H-Q-F-KIRVRLSA-OH] | 128 | 128 | >512 | >512 |
| H-IKKIRVRLSA-OH [ID3, H-I-KKIRVRLSA-OH] | 256 | 256 | 512 | 512 |
| H-QYKIRVRLSA-OH [ID13, H-Q-Y-KIRVRLSA-OH] | >256 | >512 | >512 | >512 |
| CC[C@H](C)[C@H](NC(=O)[C@H](CCCCN)NC(=O)[C@H](Cc1c[nH]c2ccccc12)NC(=O)[C@H](CCC(N)=O)NC(=O)CCCCN)C(=O)N[C@@H](CCCNC(=N)N)C(=O)N[C@H](C(=O)N[C@@H](CCCNC(=N)N)C(=O)N[C@@H](CC(C)C)C(=O)N[C@@H](CO)C(=O)N[C@@H](C)C(=O)NCCCC[C@H](NC(=O)[C@H](C)NC(=O)[C@H](CO)NC(=O)[C@H](CC(C)C)NC(=O)[C@H](CCCNC(=N)N)NC(=O)[C@@H](NC(=O)[C@H](CCCNC(=N)N)NC(=O)[C@@H](NC(=O)[C@H](CCCCN)NC(=O)[C@H](Cc1c[nH]c2ccccc12)NC(=O)[C@H](CCC(N)=O)NC(=O)CCCCN)[C@@H](C)CC)C(C)C)C(=O)NCCC(N)=O)C(C)C [ID22, (H-5-Ava-Q-W-KIRVRLSA)2-Lys-β-Ala-NH2] (I: H-[Ava]QWKIRVRLSAK[βAla]-NH2 / II: H-[Ava]QWKIRVRLSA; amide I:12-II:C) | 16 (≈ 5.53 µM) | >64 | >64 | – |
| H-YKKIRVRLSA-OH [ID7, H-Y-KKIRVRLSA-OH] | 256 | 256 | >512 | >512 |
| H-QKKIRVRLSA-OH [ID1, H-QKKIRVRLSA-OH, reference compound] | – | >512 | >512 | – |
| CC[C@H](C)[C@H](NC(=O)[C@H](CCCCN)NC(=O)[C@H](CCCCN)NC(=O)[C@H](Cc1c[nH]c2ccccc12)NC(=O)CCCCN)C(=O)N[C@@H](CCCNC(=N)N)C(=O)N[C@H](C(=O)N[C@@H](CCCNC(=N)N)C(=O)N[C@@H](CC(C)C)C(=O)N[C@@H](CO)C(=O)N[C@@H](C)C(=O)NCCCC[C@H](NC(=O)[C@H](C)NC(=O)[C@H](CO)NC(=O)[C@H](CC(C)C)NC(=O)[C@H](CCCNC(=N)N)NC(=O)[C@@H](NC(=O)[C@H](CCCNC(=N)N)NC(=O)[C@@H](NC(=O)[C@H](CCCCN)NC(=O)[C@H](CCCCN)NC(=O)[C@H](Cc1c[nH]c2ccccc12)NC(=O)CCCCN)[C@@H](C)CC)C(C)C)C(=O)NCCC(N)=O)C(C)C [ID21, (H-5-Ava-W-KKIRVRLSA)2-Lys-β-Ala-NH2] (I: H-[Ava]WKKIRVRLSAK[βAla]-NH2 / II: H-[Ava]WKKIRVRLSA; amide I:12-II:C) | 8 to 16 | 64 (≈ 22.1 µM) | 64 (≈ 22.1 µM) | – |
| CC[C@H](C)[C@H](NC(=O)[C@H](CCCCN)NC(=O)[C@H](Cc1c[nH]c2ccccc12)NC(=O)[C@H](CCC(N)=O)NC(=O)CCCCCCCN)C(=O)N[C@@H](CCCNC(=N)N)C(=O)N[C@H](C(=O)N[C@@H](CCCNC(=N)N)C(=O)N[C@@H](CC(C)C)C(=O)N[C@@H](CO)C(=O)N[C@@H](C)C(N)=O)C(C)C [ID16, H-8-Aoa-Q-W-KIRVRLSA-NH2] (H-[Aoc]QWKIRVRLSA-NH2) | 32 (≈ 22.9 µM) | >64 | >64 | – |
| CC[C@H](C)[C@H](NC(=O)[C@H](CCCCN)NC(=O)[C@H](CCCCN)NC(=O)[C@H](Cc1c[nH]c2ccccc12)NC(=O)CCCCCCCN)C(=O)N[C@@H](CCCNC(=N)N)C(=O)N[C@H](C(=O)N[C@@H](CCCNC(=N)N)C(=O)N[C@@H](CC(C)C)C(=O)N[C@@H](CO)C(=O)N[C@@H](C)C(N)=O)C(C)C [ID15, H-8-Aoa-W-KKIRVRLSA-NH2] (H-[Aoc]WKKIRVRLSA-NH2) | 32 (≈ 22.9 µM) | >64 | >64 | – |
| CC[C@H](C)[C@H](NC(=O)[C@H](CCCCN)NC(=O)[C@H](Cc1c[nH]c2ccccc12)NC(=O)[C@H](CCC(N)=O)NC(=O)CN)C(=O)N[C@@H](CCCNC(=N)N)C(=O)N[C@H](C(=O)N[C@@H](CCCNC(=N)N)C(=O)N[C@@H](CC(C)C)C(=O)N[C@@H](CO)C(=O)N[C@@H](C)C(=O)NCCCC[C@H](NC(=O)[C@H](C)NC(=O)[C@H](CO)NC(=O)[C@H](CC(C)C)NC(=O)[C@H](CCCNC(=N)N)NC(=O)[C@@H](NC(=O)[C@H](CCCNC(=N)N)NC(=O)[C@@H](NC(=O)[C@H](CCCCN)NC(=O)[C@H](Cc1c[nH]c2ccccc12)NC(=O)[C@H](CCC(N)=O)NC(=O)CN)[C@@H](C)CC)C(C)C)C(=O)NCCC(N)=O)C(C)C [ID19, (H-G-Q-W-KIRVRLSA)2-Lys-β-Ala-NH2] (I: H-GQWKIRVRLSAK[βAla]-NH2 / II: H-GQWKIRVRLSA; amide I:12-II:C) | 16 (≈ 5.7 µM) | >64 | >64 | – |
